Measured values: US11629171B2, “Beta-hairpin peptidomimetics” (POLYPHOR AG, priority 2017, dated 2023)
≈ marks a conversion by molar mass, not a printed value. Where a SMILES comes first, the peptide text is derived from it. Bridges are numbered along the chain shown (N, C = ends). Roman numbers before positions name the chains, in order. [ ]: non-standard residue; d: D form. The star is where a group is joined. Tle = CC(C)(C)[C@H](N)C(=O)O; dDab = NCC[C@@H](N)C(=O)O; Dab = NCC[C@H](N)C(=O)O; Dap = NC[C@H](N)C(=O)O; Propionyl = CCC(=O)*

Tests used:
Type in all cases: cell-based
[1] = tested on: human red blood cells (hRBC); experiment: Hemolysis; conditions: red cells of human, 1 h, 200
How it was run: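 Hemoglobin release from PBS-washed hRBC at 20% (v/v), incubated 1 h at 37° C with peptides at 200 μg/mL, is measured at 540 nm. Values are blank corrected and given as a fraction of Triton X-100 lysis × 100%.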

Escherichia coli 926415 = conditions: 926415
How it was run: (§1)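 Visible-growth endpoint after 18-20 h at 35° C defines the MIC (μg/mL). Setup: CLSI broth microdilution, MH-II cation-adjusted broth with P-80 at 0.002% final, inoculum of approximately 10^6 CFU/mL, two-fold serial peptide dilutions.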

[2] = tested on: Klebsiella pneumoniae SSI #3010; conditions: SSI #3010
How it was run: as §1

[3] = tested on: Enterobacter cloacae 848840; conditions: 848840
How it was run: as §1

[4] = tested on: Pseudomonas aeruginosa ATCC 27853; conditions: ATCC 27853
How it was run: as §1

[5] = tested on: Klebsiella pneumoniae 968733; conditions: 968733
How it was run: as §1

[6] = tested on: Acinetobacter baumannii DSM 30008; conditions: DSM 30008
How it was run: as §1

[7] = tested on: Acinetobacter baumannii 872842; conditions: 872842
How it was run: as §1

[8] = tested on: Escherichia coli ATCC 25922; conditions: ATCC 25922
How it was run: as §1

Row | MIC (Escherichia coli 926415) | MIC [2] | MIC [3] | MIC [4] | MIC [5] | MIC [6] | MIC [7] | MIC [8] | Structure (SMILES) | Hemolysis at 200 μg/mL [1]
1 | 0.0625 µg/mL (≈ 0.0258 µM) | 0.125 µg/mL (≈ 0.0515 µM) | 0.125 µg/mL (≈ 0.0515 µM) | 0.125 µg/mL (≈ 0.0515 µM) | 0.125 µg/mL (≈ 0.0515 µM) | 0.0625 µg/mL (≈ 0.0258 µM) | 0.03125 µg/mL (≈ 0.0129 µM) | 0.0625 µg/mL (≈ 0.0258 µM) | CNC(=O)[C@H](CO)NC(=O)[C@@H]1CSSC[C@H](NC(=O)[C@@H](NC(C)=O)C(C)C)C(=O)N[C@@H](Cc2ccc(O)cc2)C(=O)N[C@@H](CCN)C(=O)N[C@@H](CCC(=O)N[C@@H](CCN)C(=O)N[C@H](C(=O)N[C@@H](CN)C(=O)N[C@H]2CCNC(=O)[C@H]([C@@H](C)O)NC(=O)[C@H](CCN)NC(=O)[C@H](CCN)NC(=O)[C@H](CC(C)C)NC(=O)[C@@H](CC(C)C)NC(=O)[C@H](CCN)NC2=O)[C@@H](C)O)C(=O)N[C@H](CCN)C(=O)N[C@@H](CO)C(=O)N[C@@H](Cc2c[nH]c3ccccc23)C(=O)N[C@@H](CO)C(=O)N[C@@H](C(C)(C)C)C(=O)N1 [Ex. 145] (I: Ac-VCY[Dab]E[dDab]SWS[Tle]CS-NHMe / II: [Dab]T[Dap][Dab][Dab][dL]L[Dab][Dab]T; disulfide I:2-I:11; amide I:5-II:N; lactam II:4-II:C) | 2%
2 | 0.25 µg/mL (≈ 0.104 µM) | 0.0625 µg/mL (≈ 0.026 µM) | 0.25 µg/mL (≈ 0.104 µM) | 0.125 µg/mL (≈ 0.052 µM) | 0.25 µg/mL (≈ 0.104 µM) | 0.0625 µg/mL (≈ 0.026 µM) | 0.125 µg/mL (≈ 0.052 µM) | 0.0625 µg/mL (≈ 0.026 µM) | CC(=O)N[C@H](C(=O)N[C@H]1CCNC(=O)CC[C@@H](C(=O)N[C@@H](CO)C(N)=O)NC(=O)[C@H](C(C)(C)C)NC(=O)[C@H](CO)NC(=O)[C@H](Cc2c[nH]c3ccccc23)NC(=O)[C@H](CO)NC(=O)[C@@H](CCN)NC(=O)[C@H](CCC(=O)N[C@@H](CCN)C(=O)N[C@H](C(=O)N[C@@H](CN)C(=O)N[C@H]2CCNC(=O)[C@H]([C@@H](C)O)NC(=O)[C@H](CCN)NC(=O)[C@H](CCN)NC(=O)[C@H](CC(C)C)NC(=O)[C@@H](CC(C)C)NC(=O)[C@H](CCN)NC2=O)[C@@H](C)O)NC(=O)[C@H](CN)NC(=O)[C@H](Cc2ccc(O)cc2)NC1=O)C(C)C [Ex. 146] (I: Ac-V[Dab]Y[Dap]E[dDab]SWS[Tle]ES-NH2 / II: [Dab]T[Dap][Dab][Dab][dL]L[Dab][Dab]T; lactam I:2-I:11, II:4-II:C; amide I:5-II:N) | <1%
3 | 0.125 µg/mL (≈ 0.0523 µM) | 0.0625 µg/mL (≈ 0.0261 µM) | 0.0625 µg/mL (≈ 0.0261 µM) | 0.125 µg/mL (≈ 0.0523 µM) | 0.25 µg/mL (≈ 0.105 µM) | 0.03125 µg/mL (≈ 0.0131 µM) | 0.0625 µg/mL (≈ 0.0261 µM) | 0.03125 µg/mL (≈ 0.0131 µM) | CC(=O)N[C@H](C(=O)N[C@H]1CCNC(=O)C[C@@H](C(=O)N[C@@H](CO)C(N)=O)NC(=O)[C@H](C(C)(C)C)NC(=O)[C@H](CO)NC(=O)[C@H](Cc2c[nH]c3ccccc23)NC(=O)[C@H](CO)NC(=O)[C@@H](CCN)NC(=O)[C@H](CCC(=O)N[C@@H](CCN)C(=O)N[C@H](C(=O)N[C@@H](CN)C(=O)N[C@H]2CCNC(=O)[C@H]([C@@H](C)O)NC(=O)[C@H](CCN)NC(=O)[C@H](CCN)NC(=O)[C@H](CC(C)C)NC(=O)[C@@H](CC(C)C)NC(=O)[C@H](CCN)NC2=O)[C@@H](C)O)NC(=O)[C@H](CN)NC(=O)[C@H](Cc2ccc(O)cc2)NC1=O)C(C)C [Ex. 148] (I: Ac-V[Dab]Y[Dap]E[dDab]SWS[Tle]DS-NH2 / II: [Dab]T[Dap][Dab][Dab][dL]L[Dab][Dab]T; lactam I:2-I:11, II:4-II:C; amide I:5-II:N) | <1%

Second part, the molecule before the results:

Row | Structure (SMILES) | MIC (Escherichia coli 926415) | MIC [2] | MIC [3] | MIC [4] | MIC [5] | MIC [6] | MIC [7] | MIC [8] | Hemolysis at 200 μg/mL [1]
4 | CCC(=O)N[C@H](C(=O)N[C@H]1CSSC[C@@H](C(=O)N[C@@H](CO)C(N)=O)NC(=O)[C@H](C(C)(C)C)NC(=O)[C@H](CO)NC(=O)[C@H](Cc2c[nH]c3ccccc23)NC(=O)[C@H](CO)NC(=O)[C@@H](CCN)NC(=O)[C@H](CCC(=O)N[C@@H](CCN)C(=O)N[C@H](C(=O)N[C@@H](CN)C(=O)N[C@H]2CCNC(=O)[C@H]([C@@H](C)O)NC(=O)[C@H](CCN)NC(=O)[C@H](CCN)NC(=O)[C@H](CC(C)C)NC(=O)[C@@H](CC(C)C)NC(=O)[C@H](CCN)NC2=O)[C@@H](C)O)NC(=O)[C@H](CCN)NC(=O)[C@H](Cc2ccc(O)cc2)NC1=O)C(C)C [Ex. 144] (I: Propionyl-VCY[Dab]E[dDab]SWS[Tle]CS-NH2 / II: [Dab]T[Dap][Dab][Dab][dL]L[Dab][Dab]T; disulfide I:2-I:11; amide I:5-II:N; lactam II:4-II:C) | 0.0625 µg/mL (≈ 0.0258 µM) | 0.0625 µg/mL (≈ 0.0258 µM) | 0.125 µg/mL (≈ 0.0515 µM) | 0.125 µg/mL (≈ 0.0515 µM) | 0.0625 µg/mL (≈ 0.0258 µM) | 0.0625 µg/mL (≈ 0.0258 µM) | 0.0625 µg/mL (≈ 0.0258 µM) | 0.03125 µg/mL (≈ 0.0129 µM) | <1%
5 | CC(=O)N[C@H](C(=O)N[C@H]1CCNC(=O)CC[C@@H](C(=O)N[C@@H](CO)C(N)=O)NC(=O)[C@H](C(C)C)NC(=O)[C@H](CO)NC(=O)[C@H](Cc2c[nH]c3ccccc23)NC(=O)[C@H](CO)NC(=O)[C@@H](CCN)NC(=O)[C@H](CCC(=O)N[C@@H](CCN)C(=O)N[C@H](C(=O)N[C@@H](CN)C(=O)N[C@H]2CCNC(=O)[C@H]([C@@H](C)O)NC(=O)[C@H](CCN)NC(=O)[C@H](CCN)NC(=O)[C@H](CC(C)C)NC(=O)[C@@H](CC(C)C)NC(=O)[C@H](CCN)NC2=O)[C@@H](C)O)NC(=O)[C@H](CN)NC(=O)[C@H](Cc2ccc(O)cc2)NC1=O)C(C)C [Ex. 147] (I: Ac-V[Dab]Y[Dap]E[dDab]SWSVES-NH2 / II: [Dab]T[Dap][Dab][Dab][dL]L[Dab][Dab]T; lactam I:2-I:11, II:4-II:C; amide I:5-II:N) | 0.25 µg/mL (≈ 0.105 µM) | 0.0625 µg/mL (≈ 0.0261 µM) | 0.125 µg/mL (≈ 0.0523 µM) | 0.125 µg/mL (≈ 0.0523 µM) | 0.5 µg/mL (≈ 0.209 µM) | 0.0625 µg/mL (≈ 0.0261 µM) | 0.25 µg/mL (≈ 0.105 µM) | 0.0625 µg/mL (≈ 0.0261 µM) | <1%
6 | CC(=O)N[C@H](C(=O)N[C@H]1CCNC(=O)C[C@@H](C(=O)N[C@@H](CO)C(N)=O)NC(=O)[C@H](C(C)C)NC(=O)[C@H](CO)NC(=O)[C@H](Cc2c[nH]c3ccccc23)NC(=O)[C@H](CO)NC(=O)[C@@H](CCN)NC(=O)[C@H](CCC(=O)N[C@@H](CCN)C(=O)N[C@H](C(=O)N[C@@H](CN)C(=O)N[C@H]2CCNC(=O)[C@H]([C@@H](C)O)NC(=O)[C@H](CCN)NC(=O)[C@H](CCN)NC(=O)[C@H](CC(C)C)NC(=O)[C@@H](CC(C)C)NC(=O)[C@H](CCN)NC2=O)[C@@H](C)O)NC(=O)[C@H](CN)NC(=O)[C@H](Cc2ccc(O)cc2)NC1=O)C(C)C [Ex. 149] (I: Ac-V[Dab]Y[Dap]E[dDab]SWSVDS-NH2 / II: [Dab]T[Dap][Dab][Dab][dL]L[Dab][Dab]T; lactam I:2-I:11, II:4-II:C; amide I:5-II:N) | 0.25 µg/mL (≈ 0.105 µM) | 0.125 µg/mL (≈ 0.0526 µM) | 0.125 µg/mL (≈ 0.0526 µM) | 0.125 µg/mL (≈ 0.0526 µM) | 0.5 µg/mL (≈ 0.21 µM) | 0.0625 µg/mL (≈ 0.0263 µM) | 0.125 µg/mL (≈ 0.0526 µM) | 0.0625 µg/mL (≈ 0.0263 µM) | <1%
